According to US20050101633A1, “Remedial agent for myelopathic disease” (priority 2001, published 2005):

Assays:
[1] = system: spinal cord injury model in rats; details: reported in Brain Research, 799, 264-269 (1998); cited from earlier work
[2] = system: myeloperoxidase activity; test: Assay of myeloperoxidase (MPO) activity in T13 spinal cord segment after spinal cord injury; assay type: in vivo, rat; details: administered 15 minutes before spinal cord injury, FIG. 2
Experimental: For assessment of accumulation and infiltration of leukocytes, we measured myeloperoxidase activity according to a modification of the method of Xu et al. (J. neurochem. 55, 907-912 (1990)). The test compound was administrated 15 minutes before spinal cord injury, and then the T13 segments 2, 4, 8, 12 and 24 h after injury were sonicated in 1 mL of 50 mM potassium phosphate buffer (pH 6.0) containing 0.5% […]. The homogenates were centrifuged at 10,000×g for 20 min, and 0.1 mL of the supernatant was added to 0.6 mL of 50 mM potassium phosphate buffer (pH 6.0) containing 0.53 mM o-dianisidine dihydrochrolide and 0.15 mM H2O2. After 5 min, the change in absorbance at 460 nm was monitored with a spectrophotometer (model DU 640, Beckmann, Germany).

[3] = system: CINC-1 protein; test: Suppression of CINC-1 expression on rat spinal cord injury model; assay type: in vivo; details: Wistar rats; injected via femoral vein 15 min before spinal cord injury; T13 segment; FIG. 1
Experimental: Under anesthesia using pentobarbital (40 mg/kg of body weight), spinal cord injury model was made using Wistar rats weighing 250-300 g according to the operative procedure of Tonai et al. [J. Neurochem. 72, 302-309 (1999)]. At various time intervals after injury, the rats were frozen, and then T13 spinal cord segment was removed for analysis of CINC-1 protein.
The test compound was dissolved in physiologic saline containing 12 mM Na2CO3 and injected via the femoral vein 15 min before spinal cord injury. Saline vehicle alone was administered by the same route in control animals.

[4] = system: blood-CNS barrier; test: Blood-CNS barrier disruption (Evans blue dye) after spinal cord injury; assay type: in vivo, rat; details: 50 mg/kg injected 15 min before SCI; Evans blue at 6 h after SCI; FIG. 3
Experimental: Disruption of the blood-CNS barrier was assessed according to the method of Uyama et al. [J. Cereb. Blood Flow Metab. 8, 282-284 (1988)] with certain modifications. SCI was induced 15 min after injection of test compound (50 mg/kg). At 6 h after SCI, 4 mL/kg of 2.5% Evans blue dye solution was administered via the femoral vein. One hour later rats were anesthetized by pentobarbital (40 mg/kg) and killed. The T13 spinal cord segment was removed and homogenized in 1 mL of 50% trichloroacetic acid (w/v). After centrifugation the extracted dye was diluted fourfold with ethanol, and its fluorescence was quantified using a spectrophotometer at an excitation wavelength of 620 nm and an emission wavelength of 680 nm.

[5] = system: rat spinal cord injury model; test: Improvement of dyskinesia, open field walking scale after spinal cord injury; assay type: in vivo; details: 50 mg/kg injected 15 min before SCI; compression injury with 20-g weight; up to 28 days; FIG. 4
Experimental: (§1) SCI was induced 15 min after injection of test compound (50 mg/kg). Dyskinesia was assessed according to an open field walking scale (Behrmann et al., Exp. Neurol. 126, 61-75 (1994)) and an inclined-plane test (Rivlin et al., J. Neurosurg. 47, 577-581 (1977)) using rats subjected to compression injury with a 20-g weight. In the open field walking scale, animals were scored from 0 (no spontaneous movement) to 5 (normal gait) based on 5 min of observation. With the scale, the animal's capability for gross hindlimb movement was evaluated before SCI, every 2 days afterward for 2 weeks beginning on the first day, and later at 21 and 28 days after injury. In the inclined-plane test, a cork mat was fixed to the surface of a movable inclined plane. We recorded the maximal angle of inclined-plane at which the rat could maintain position for […]. This was evaluated before and at 1, 7, 14, 21 and 28 days after injury.

[6] = system: rat spinal cord injury model; test: Improvement of dyskinesia, inclined-plane test after spinal cord injury; assay type: in vivo; details: 50 mg/kg injected 15 min before SCI; compression injury with 20-g weight; up to 28 days; FIG. 5
Experimental: as §1

Compound	efficacy in spinal cord injury model in rats [1]	myeloperoxidase activity ([2]; 4 hours after injury)	myeloperoxidase activity ([2]; 12 hours after injury)	myeloperoxidase activity ([2]; 24 hours after injury)	CINC-1 protein expression after spinal cord injury [3]	Blood-CNS barrier disruption [4]	dyskinesia after spinal cord injury, open field walking scale [5]	dyskinesia after spinal cord injury, inclined-plane test [6]
CO[C@H]1C(=O)N2C(C(=O)N3CCC[C@H]3C(=O)O)=C(COC(C)=O)CS(=O)(=O)[C@H]12 [L 658,758]	effective	–	–	–	–	–	–	–
CC(C)(C)C(=O)Oc1ccc(S(=O)(=O)Nc2ccccc2C(=O)NCC(=O)[O-])cc1.O.O.O.O.[Na+] [compound (X), N-[o-(p-pivaloyloxybenzenesulfonylamino)benzoyl]glycine monosodium salt tetrahydrate]	–	46 % of control	61 % of control	64 % of control	suppressed in dose-dependently	suppressed Blood-CNS barrier disruption significantly	suppressed dyskinesia after spinal cord injury significantly	suppressed dyskinesia after spinal cord injury significantly
Eglin C	effective	–	–	–	–	–	–	–
